# Earlier results, collected in US20230233510A1, “CYSTEINE PROTEASE INHIBITORS FOR USE IN THE PREVENTION AND/OR TREATMENT OF CORONAVIRUS” (ALBERT-LUDWIGS-UNIVERSITÄT FREIBURG, priority 2020, published 2023).
# Experiments:
# [1] = tested on: human coronavirus NL63 (HCoV-NL63); details: HeLa cells expressing ACE2 and TMPRSS2
# [2] = tested on: SARS-CoV; details: HeLa cells expressing ACE2 and TMPRSS2
structure (smiles),measurement,setting,value
"CN(C)C(=O)COC(=O)Cc1ccc(OC(=O)c2ccc(NC(=N)N)cc2)cc1 [camostat, (4-{2-[2-(Dimethylamino)-2-oxoethoxy]-2-oxoethyl}phenyl)(4-carbamimidamidobenzoate)]",block of infection,[1],partially blocked infection
same,block of infection,[2],partially blocked infection
